Where two headings read alike, the source gives them in different places. Bridge positions count the residues as written; N and C are the ends. Ends that are not written are not given here. Peptide text beside a SMILES is read from it.
What was measured:
calcitonin receptor [1] = test: cAMP production in CHO cells (AlphaScreen); format: cell-based; conditions: CHO, 30,000 cells/well
amylin receptors = target: T1, amylin receptors (Rattus norvegicus, UniProt P32214); test: amylin radioligand binding assay (125I-rat amylin, nucleus accumbens membranes); conditions: Table 6; read-out: Amylin receptor binding
T1 construct: This basal forebrain tissue, containing the nucleus accumbens and surrounding regions, was weighed and homogenized; from tissue; host or cells: rat basal forebrain (nucleus accumbens) membranes, male Sprague-Dawley rats
T1 sequence (P32214 25-516): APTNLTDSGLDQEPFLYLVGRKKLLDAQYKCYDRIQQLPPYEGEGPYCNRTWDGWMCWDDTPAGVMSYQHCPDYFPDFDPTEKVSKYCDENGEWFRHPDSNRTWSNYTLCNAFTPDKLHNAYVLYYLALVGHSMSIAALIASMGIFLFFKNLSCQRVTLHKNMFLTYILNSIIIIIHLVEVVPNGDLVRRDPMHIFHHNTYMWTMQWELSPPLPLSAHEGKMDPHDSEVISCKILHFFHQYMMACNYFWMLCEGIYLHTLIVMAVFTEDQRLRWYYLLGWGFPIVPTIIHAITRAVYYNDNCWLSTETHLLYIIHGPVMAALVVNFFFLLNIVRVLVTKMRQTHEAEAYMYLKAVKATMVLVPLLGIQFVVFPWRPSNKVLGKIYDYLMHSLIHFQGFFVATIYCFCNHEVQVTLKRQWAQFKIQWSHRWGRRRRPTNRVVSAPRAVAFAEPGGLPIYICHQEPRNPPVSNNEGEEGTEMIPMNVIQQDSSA
Protocol: Unlabeled peptides were obtained from BACHEM Inc. (Torrance, Calif.).
Male Sprague-Dawley® rats (200-250) grams were sacrificed by decapitation. Brains were removed and place in cold phosphate-buffered saline (PBS). From the ventral surface, cuts were made rostral to the hypothalamus, bounded laterally by the olfactory tracts and extending at a 45° angle medially from these tracts. […] Membranes were washed three times in fresh buffer by centrifugation for 15 minutes at 48,000×g. The final membrane pellet was resuspended in 20 mM HEPES buffer containing 0.2 mM phenylmethylsulfonyl fluoride (PMSF).
Solutions were incubated for 60 minutes at 2 C. […] Filters were washed immediately before filtration with 5 ml cold PBS, and immediately after filtration with 15 ml cold PBS. […] Competition curves were generated by measuring binding in the presence of 10^−12 to 10^−6 M unlabeled test compound and were analyzed by nonlinear regression using a 4-parameter logistic equation (INPLOT program; […] Software, San Diego, Calif.).

adrenomedullin receptor = adrenomedullin receptor (Homo sapiens, UniProt O60895+Q16602); test: adrenomedullin (ADM) receptor binding assay; conditions: Table 6
Chain of adrenomedullin receptor (Q16602 23-461): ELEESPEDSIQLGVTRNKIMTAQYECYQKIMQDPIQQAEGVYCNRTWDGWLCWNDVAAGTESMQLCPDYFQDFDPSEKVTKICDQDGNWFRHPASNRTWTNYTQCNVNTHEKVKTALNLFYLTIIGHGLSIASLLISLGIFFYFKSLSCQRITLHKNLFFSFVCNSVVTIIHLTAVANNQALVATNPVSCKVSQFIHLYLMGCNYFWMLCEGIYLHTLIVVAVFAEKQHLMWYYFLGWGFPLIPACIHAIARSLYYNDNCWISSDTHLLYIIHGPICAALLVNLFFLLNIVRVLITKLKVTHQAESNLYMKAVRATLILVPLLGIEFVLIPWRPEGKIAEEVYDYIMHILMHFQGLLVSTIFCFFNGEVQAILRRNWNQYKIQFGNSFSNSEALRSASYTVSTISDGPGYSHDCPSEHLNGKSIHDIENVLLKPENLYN
Chain of adrenomedullin receptor (O60895 43-175): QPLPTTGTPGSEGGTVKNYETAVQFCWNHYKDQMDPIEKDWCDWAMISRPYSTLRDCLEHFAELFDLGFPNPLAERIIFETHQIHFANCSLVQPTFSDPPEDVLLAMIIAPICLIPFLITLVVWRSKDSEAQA

calcitonin receptor [2] = target: T2, calcitonin receptor (Rattus norvegicus, UniProt P32214); test: calcitonin receptor binding assay (rCalcitonin RBA); conditions: Table 6; read-out: CT receptor binding
T2 sequence (P32214 25-516): T1 sequence (P32214 25-516)

Molecule | IC50 (amylin receptors) | IC50 (adrenomedullin receptor) | IC50 (calcitonin receptor [2]) | EC50 (calcitonin receptor [1]; average of three experiments, read-out: Average EC50) | EC50 (calcitonin receptor [1]; read-out: Experiment 1 EC50) | EC50 (calcitonin receptor [1]; read-out: Experiment 2 EC50) | EC50 (calcitonin receptor [1]; read-out: Experiment 3 EC50)
CC[C@H](C)[C@H](NC(=O)[C@H](C)NC(=O)[C@@H](NC(=O)[C@H](CCC(N)=O)NC(=O)[C@@H]1CCCN1C(=O)[C@H](Cc1ccccc1)NC(=O)[C@@H](NC(=O)[C@H](Cc1c[nH]cn1)NC(=O)[C@H](Cc1ccccc1)NC(=O)[C@H](CCCCN)NC(=O)[C@H](CC(N)=O)NC(=O)[C@H](Cc1ccccc1)NC(=O)[C@H](CC(=O)O)NC(=O)[C@H](CCC(N)=O)NC(=O)[C@@H](NC(=O)[C@H](Cc1ccc(O)cc1)NC(=O)[C@@H](NC(=O)CNC(=O)[C@H](CC(C)C)NC(=O)[C@H](CCSC)NC(=O)[C@@H]1CSSC[C@H](N)C(=O)NCC(=O)N[C@@H](CC(N)=O)C(=O)N[C@@H](CC(C)C)C(=O)N[C@@H](CO)C(=O)N[C@@H]([C@@H](C)O)C(=O)N1)[C@@H](C)O)[C@@H](C)O)[C@@H](C)O)[C@@H](C)O)C(=O)NCC(=O)N[C@H](C(=O)NCC(=O)N[C@@H](C)C(=O)N1CCC[C@H]1C(N)=O)C(C)C [SEQ ID NO: 6] |  |  |  | 0.097 nM | 0.077 nM | 0.14 nM | 0.075 nM
CSCC[C@H](NC(=O)[C@H](CC(C)C)NC(=O)[C@H](CCC(N)=O)NC(=O)[C@H](Cc1c[nH]c2ccccc12)NC(=O)[C@H](CC(C)C)NC(=O)[C@H](CCCNC(=N)N)NC(=O)[C@H](Cc1c[nH]cn1)NC(=O)[C@H](CO)NC(=O)[C@H](CC(C)C)NC(=O)[C@H](CC(N)=O)NC(=O)[C@H](CCC(N)=O)NC(=O)[C@@H](NC(=O)[C@H](CCC(N)=O)NC(=O)[C@@H]1CSSC[C@H](NC(=O)CNC(=O)[C@@H](N)C(C)C)C(=O)N[C@@H](C(C)C)C(=O)N[C@@H](CC(C)C)C(=O)NCC(=O)N[C@@H]([C@@H](C)O)C(=O)N1)C(C)C)C(=O)NCC(=O)N1CCC[C@H]1C(=O)N[C@@H](C)C(=O)NCC(=O)N[C@@H](CCCNC(=N)N)C(=O)N[C@@H](CCC(N)=O)C(=O)N[C@@H](CC(=O)O)C(=O)N[C@@H](CO)C(=O)N[C@@H](C)C(=O)N1CCC[C@H]1C(=O)N[C@H](C(=O)N[C@@H](CC(=O)O)C(=O)N1CCC[C@H]1C(=O)N[C@@H](CO)C(=O)N[C@@H](CO)C(=O)N1CCC[C@H]1C(=O)N[C@@H](Cc1c[nH]cn1)C(=O)N[C@@H](CO)C(=O)N[C@@H](Cc1ccc(O)cc1)C(N)=O)C(C)C [compound 2] | 12 nM | 6.4 nM | 24 nM |  |  |  | 
H-TQAQLLRVGCSNLSTCQVQNLSHRLWQLMGPAGRQDSAPVDPSSPHSY-NH2 (disulfide 10-16 (inferred)) [compound 20] |  | 36 nM | 16 nM |  |  |  | 
H-TQAQLLRVGMVLGTMQVQNLSHRLWQLMGPAGRQDSAPVDPSSPHSY-NH2 [compound 25] |  | 120 nM | > 1000 nM |  |  |  | 
TQAQLLRVGCNTATCQVQNLSHRLWQLMGPAGRQDSAPVDPSSPHSY-NH2 (disulfide 10-15 (inferred)) [compound 21] |  | 47 nM | 17 nM |  |  |  | 
TQAQLLRVGCVLGTCQVQNLSHRLWQLRQDSAPVDPSSPHSY-NH2 (disulfide 10-15 (inferred)) [compound 16] |  | ≥ 1000 nM | 22 nM |  |  |  | 

The next lines start with results.

IC50 (amylin receptors) | IC50 (adrenomedullin receptor) | IC50 (calcitonin receptor [2]) | Molecule | EC50 (calcitonin receptor [1]; average of three experiments, read-out: Average EC50) | EC50 (calcitonin receptor [1]; read-out: Experiment 1 EC50) | EC50 (calcitonin receptor [1]; read-out: Experiment 2 EC50) | EC50 (calcitonin receptor [1]; read-out: Experiment 3 EC50)
 | ≥ 1000 nM | 9 nM | CC(C)C[C@@H]1NC(=O)[C@H](CC(N)=O)NC(=O)CNC(=O)[C@@H](NC(=O)CNC(=O)[C@@H](N)C(C)C)CSSC[C@@H](C(=O)N[C@@H](CCC(N)=O)C(=O)N[C@H](C(=O)N[C@@H](CCC(N)=O)C(=O)N[C@@H](CC(N)=O)C(=O)N[C@@H](CC(C)C)C(=O)N[C@@H](CO)C(=O)N[C@@H](Cc2c[nH]cn2)C(=O)N[C@@H](CCCNC(=N)N)C(=O)N[C@@H](CC(C)C)C(=O)N[C@@H](Cc2c[nH]c3ccccc23)C(=O)N[C@@H](CCC(N)=O)C(=O)N[C@@H](CC(C)C)C(=O)N[C@@H](CCCNC(=N)N)C(=O)N[C@@H](CCC(N)=O)C(=O)N[C@@H](CC(=O)O)C(=O)N[C@@H](CO)C(=O)N[C@@H](C)C(=O)N2CCC[C@H]2C(=O)N[C@H](C(=O)N[C@@H](CC(=O)O)C(=O)N2CCC[C@H]2C(=O)N[C@@H](CO)C(=O)N[C@@H](CO)C(=O)N2CCC[C@H]2C(=O)N[C@@H](Cc2c[nH]cn2)C(=O)N[C@@H](CO)C(=O)N[C@@H](Cc2ccc(O)cc2)C(N)=O)C(C)C)C(C)C)NC(=O)[C@H]([C@@H](C)O)NC(=O)[C@H](CO)NC1=O [compound 29] (H-VGCGNLSTCQVQNLSHRLWQLRQDSAPVDPSSPHSY-NH2; disulfide 3-9 (inferred)) |  |  |  | 
17 nM | 37 nM | 153 nM | CSCC[C@H](NC(=O)[C@H](CC(C)C)NC(=O)[C@H](CCC(N)=O)NC(=O)[C@H](Cc1c[nH]c2ccccc12)NC(=O)[C@H](CC(C)C)NC(=O)[C@H](CCCNC(=N)N)NC(=O)[C@H](Cc1c[nH]cn1)NC(=O)[C@H](CO)NC(=O)[C@H](CC(C)C)NC(=O)[C@H](CC(N)=O)NC(=O)[C@H](CCC(N)=O)NC(=O)[C@@H](NC(=O)[C@H](CCC(N)=O)NC(=O)[C@@H]1CSSC[C@H](NC(=O)CNC(=O)[C@@H](N)C(C)C)C(=O)N[C@@H](C(C)C)C(=O)N[C@@H](CC(C)C)C(=O)NCC(=O)N[C@@H]([C@@H](C)O)C(=O)N1)C(C)C)C(=O)NCC(=O)N1CCC[C@H]1C(=O)N[C@@H](C)C(=O)NCC(=O)N[C@@H](CCCNC(=N)N)C(=O)N[C@@H](CCC(N)=O)C(=O)N[C@@H](CC(=O)O)C(=O)N[C@@H](CO)C(=O)N[C@@H](C)C(=O)N1CCC[C@H]1C(=O)N[C@H](C(=O)N[C@@H](CCC(=O)O)C(=O)N1CCC[C@H]1C(=O)N[C@@H](CO)C(=O)N[C@@H](CO)C(=O)N1CCC[C@H]1C(=O)N[C@@H](Cc1c[nH]cn1)C(=O)N[C@@H](CO)C(=O)N[C@@H](Cc1ccc(O)cc1)C(N)=O)C(C)C [compound 35] (H-VGCVLGTCQVQNLSHRLWQLMGPAGRQDSAPVEPSSPHSY-NH2; disulfide 3-8 (inferred)) |  |  |  | 
39 nM | ≥ 1000 nM | 198 nM | CC(C)C[C@H](NC(=O)[C@H](CCC(N)=O)NC(=O)[C@H](Cc1c[nH]c2ccccc12)NC(=O)[C@H](CC(C)C)NC(=O)[C@H](CCCNC(=N)N)NC(=O)[C@H](Cc1c[nH]cn1)NC(=O)[C@H](CO)NC(=O)[C@H](CC(C)C)NC(=O)[C@H](CC(N)=O)NC(=O)[C@H](CCC(N)=O)NC(=O)[C@@H](NC(=O)[C@H](CCC(N)=O)NC(=O)[C@@H]1CSSC[C@H](NC(=O)CNC(=O)[C@@H](N)C(C)C)C(=O)N[C@@H](C(C)C)C(=O)N[C@@H](CC(C)C)C(=O)NCC(=O)N[C@@H]([C@@H](C)O)C(=O)N1)C(C)C)C(=O)N[C@@H](CCCNC(=N)N)C(=O)N[C@@H](CCC(N)=O)C(=O)N[C@@H](CC(=O)O)C(=O)N[C@@H](CO)C(=O)N[C@@H](C)C(=O)N1CCC[C@H]1C(=O)N[C@H](C(=O)N[C@@H](CCC(=O)O)C(=O)N1CCC[C@H]1C(=O)N[C@@H](CO)C(=O)N[C@@H](CO)C(=O)N1CCC[C@H]1C(=O)N[C@@H](Cc1c[nH]cn1)C(=O)N[C@@H](CO)C(=O)N[C@@H](Cc1ccc(O)cc1)C(N)=O)C(C)C [compound 36] (H-VGCVLGTCQVQNLSHRLWQLRQDSAPVEPSSPHSY-NH2; disulfide 3-8 (inferred)) |  |  |  | 
39 nM | ≥ 1000 nM | 121 nM | CC(C)C[C@H](NC(=O)[C@H](CCC(N)=O)NC(=O)[C@H](Cc1c[nH]c2ccccc12)NC(=O)[C@H](CC(C)C)NC(=O)[C@H](CCCNC(=N)N)NC(=O)[C@H](Cc1c[nH]cn1)NC(=O)[C@H](CO)NC(=O)[C@H](CC(C)C)NC(=O)[C@H](CC(N)=O)NC(=O)[C@H](CCC(N)=O)NC(=O)[C@@H](NC(=O)[C@H](CCC(N)=O)NC(=O)[C@@H]1CSSC[C@H](NC(=O)CN)C(=O)N[C@@H](CC(N)=O)C(=O)N[C@@H]([C@@H](C)O)C(=O)N[C@@H](C)C(=O)N[C@@H]([C@@H](C)O)C(=O)N1)C(C)C)C(=O)N[C@@H](CCCNC(=N)N)C(=O)N[C@@H](CCC(N)=O)C(=O)N[C@@H](CC(=O)O)C(=O)N[C@@H](CO)C(=O)N[C@@H](C)C(=O)N1CCC[C@H]1C(=O)N[C@H](C(=O)N[C@@H](CCC(=O)O)C(=O)N1CCC[C@H]1C(=O)N[C@@H](CO)C(=O)N[C@@H](CO)C(=O)N1CCC[C@H]1C(=O)N[C@@H](Cc1c[nH]cn1)C(=O)N[C@@H](CO)C(=O)N[C@@H](Cc1ccc(O)cc1)C(N)=O)C(C)C [compound 37] (H-GCNTATCQVQNLSHRLWQLRQDSAPVEPSSPHSY-NH2; disulfide 2-7 (inferred); N-terminus assumed) |  |  |  | 
 | 37 nM | > 1000 nM | H-GMVLGTMQVQNLSHRLWQLMGPAGRQDSAPVDPSSPHSY-NH2 [compound 26] |  |  |  | 
16 nM | 7.1 nM |  | TQAQLLRVGCVLGTCQVQNLSHRLWQLMGPAGRQESAPVEPSSPHSY-NH2 (disulfide 10-15 (inferred)) [compound 32] |  |  |  | 

— patent US7928060B2, “Amylin family polypeptide-6 (AFP-6) analogs and methods of making and using them” (Amylin Pharmaceuticals, Inc., priority 2004, dated 2011)
